A short description of data set [1]: in vivo. The following applies: goat.
A short description of data set [2]: Amikacin and vancomycin elution from sterilized chitosan films. As to conditions: films soaked in 5 mg/ml antibiotic 2 minutes, 50 ml sterile saline, refreshed. Type of data set: physicochemical. The protocol:
Agent elution from chitosan films was also analyzed (FIG. 1C). Sterilized chitosan films were loaded with amikacin and vancomycin. […] The elution was done in 50 ml of sterile saline solution and completely refreshed at each time point. The elution was carried out for 3 days. The values shown in FIG. 1C are expressed in μg/ml.
Elution data from chitosan films is provided at Table 4. […] The elution was done in 50 ml of sterile saline solution and completely refreshed at each time point. The elution was carried out for 3 days. The values shown on the graph are in μg/ml.
In one approach, samples were submerged into 15 ml amikacin solution (5 mg/ml) and allowed to hydrate for 2 minutes. Samples were then subjected to elution tests by submerging the films in 50 ml of 1× Phosphate Buffered Saline (PBS) and agitated in a 37 C incubator for the duration of the study. One ml aliquots were removed at 1, 3, 6, 24, 48, and 72 hours. Aliquots were tested for antibiotic concentration using a fluorescence polarization immunoassay technique (TDxFLx, Abbott Labs, Abbott Park, IL).

Data set [3] in a line: Antibiotic elution from sterilized chitosan sponges in PBS (TDx). Type of data set: physicochemical. As to conditions: for effect of a co-loaded antibiotic on release from chitosan sponge: sponges hydrated with 5 mg/ml single or combined antibiotics, 20 ml PBS. The protocol: In a preferred approach adopted for use in the goat wound treatment model described in Example 2, 2.5 grams of chitosan was dissolved in 247.5 ml of 1 (v/v) % blended acid solvent. The mixture contained 75%/25% lactic to acetic acid. This mixture was stirred for 4-6 hours at maximum allowable speed on a stir plate. The chitosan solution was filtered to remove undissolved chitosan. 25 ml of chitosan solution was pipetted into small aluminum weigh dishes ([…]). Each dish was frozen at […] freezer for 1 hour. The frozen samples were then placed into a freeze-dryer and lyophilize for 48 hours. Sponge samples were neutralized in 0.175 M NaOH— solution for ˜30-40 seconds. The sponges were rinsed repeatedly in containers filled with distilled water and pH changes were monitored until the rinsing water was neutral in pH. The re-hydrated sponges were then incubated at −80 C freezer for 1 hour and re-lyophilized for 24-48 hours. The sponges were then sterilized using low-dose gamma irradiation at Wright Medical (25-32 kGy).
Sponges were subjected to elution tests by submerging hydrated sponges into 20 ml of 1× Phosphate Buffered Saline (PBS), kept in a 37° C. incubator for the duration of the study. […] One ml aliquots were taken at 1, 3, 6, 24, 48, and 72 hours. Aliquots were tested for antibiotic concentration using a fluorescence polarization immunoassay technique (TDx, Abbott Labs, Abbott Park, IL).

The test system of data set [4] is Pseudomonas aeruginosa. The data set can be described thus: Turbidity/growth assay of sponge elution samples against Pseudomonas aeruginosa. Type of data set: cell-based. The following applies: eluate of amikacin-loaded 61/71 DDA chitosan sponge. The protocol:
To determine whether agents eluted from the sponges could be used to inhibit bacterial growth, zone of inhibition (ZOI) studies were carried out (FIGS. 3A-3D). Chitosan sponges loaded with a single antibiotic or combinations of antibiotics, as above, were analyzed for their ability to inhibit bacterial growth. For the assays to determine inhibition of bacterial growth, the bacterial strains Pseudomonas aeruginosa and Staphylococcus aureus were used. Results showing the inhibition of Pseudomonas aeruginosa and Staphylococcus aureus are shown at Tables 2 and 3, respectively.
Drug activity of the aliquots was tested using a turbidity assay. Two different strains of bacteria were used in this study. Vancomycin samples were tested against Staphylococcus aureus and amikacin samples were tested against both Staphylococcus aureus and Pseudomonas aeruginosa. 200 μl of each aliquot was added to 1.8 ml of Mueller-Hinton II broth combined with 20 μl of S. aureus inoculum. Amikacin samples (200 μl) were also added to 1.75 ml of trypticase soy broth (TSB) and 50 μl of P. aeruginosa inoculum. Samples were incubated for 24 hours at 37 C. Absorbance measurements were recorded after incubation at a wavelength of 530 nm (A530).
Drug activity of the aliquots was tested using a turbidity assay. Samples were tested against Pseudomonas aeruginosa. […] Absorbance measurements at 530 nm on a spectrophotometer (BioTek).

Data set [5] in a line: Antibiotic elution from sponge fragments retrieved from goats. The class given is physicochemical, goat.
Description: Sponge fragments remained in 8 of the 10 goats treated with chitosan sponges.
Data set [6] has as its system S. aureus (Cowan I strain). The experiment in a line: Turbidity assay of film eluates against S. aureus. Type of data set: cell-based, Staphylococcus aureus. The following applies: 48 and 72 hr eluate samples from chitosan films. The protocol: In other studies, antibiotic activity against S. aureus (Cowan I strain) was determined by utilizing the remaining antibiotic elution samples, in triplicate, in a turbidity assay. In this turbidity study, solution clarity after sufficient bacterial incubation with antibiotic eluates indicated bacterial inhibition due to antibiotic activity.
Blanks containing neither S aureus nor eluate samples, positive controls containing S aureus without antibiotic eluates, and negative controls containing both S aureus and high concentration antibiotic standards were mixed and incubated at 37° C. along with the eluate samples. After 24 hours of incubation, the tubes were vortexed and the absorbance at 530 nm of each inoculum solution was recorded using a spectrophotometer.

[7] abbreviates: 5 mg/ml solution (sponge loading).

Turning to `NCC[C@H](O)C(=O)N[C@@H]1C[C@H](N)[C@@H](O[C@H]2O[C@H](CN)[C@@H](O)[C@H](O)[C@H]2O)[C@H](O)[C@H]1O[C@H]1O[C@H](CO)[C@@H](O)[C@H](N)[C@H]1O` [amikacin], the concentration at 6 h in data set [1] amounted to 526 ± 478 ng/mL. Moreover, in data set [1], the concentration at 12 h was 200 ng/mL. Also, the concentration at 24 h in data set [1] was determined as 200 ng/mL. Besides, the concentration at 36 h in data set [1] came out at 200 ng/mL. The compound also gave a concentration at 42 h in data set [1] of 200 ng/mL. The “elution from sterilized chitosan films” value in data set [2] (1 hour) amounted to 50.63 ± 4.49 µg/mL; in data set [2] (3 hours), 2.15 ± 1.13 µg/mL; in data set [2] (6 hours) it was 3.17 ± 1.14 µg/mL; in data set [2] (24 hours), 3.93 ± 0.57 µg/mL; in data set [2] (48 hours) it was 4.7 ± 2.49 µg/mL; in data set [2] (72 hours) it was 0.6 ± 0.48 µg/mL. For the same compound, the “effect of a co-loaded antibiotic on release from chitosan sponge” value (shortened to “effect of a co-loaded antibiotic”) in data set [3] was “vancomycin nor daptomycin affected the release of amikacin”. The entries for the “Bacterial growth inhibition of P. aeruginosa” value in data set [4] (after 72 hours) and in data set [4] (after one hour) were 93.1% and 98.7%, respectively. For the same compound, the “12 hr TDx reading, antibiotic elution from remaining sponge fragments, Mean” value in data set [5] (goat, 12 h) is 0.60 µg/mL/g.

With `CCCCCCCCCC(=O)N[C@@H](Cc1c[nH]c2ccccc12)C(=O)N[C@H](CC(N)=O)C(=O)N[C@@H](CC(=O)O)C(=O)N[C@@H]1C(=O)NCC(=O)N[C@@H](CCCN)C(=O)N[C@@H](CC(=O)O)C(=O)N[C@H](C)C(=O)N[C@@H](CC(=O)O)C(=O)NCC(=O)N[C@H](CO)C(=O)N[C@@H]([C@H](C)CC(=O)O)C(=O)N[C@@H](CC(=O)c2ccccc2N)C(=O)O[C@@H]1C` [daptomycin], the “inhibition of S. aureus growth by film eluates” value in data set [6] was “active in inhibiting the growth of S. aureus”. In addition, the “release from chitosan sponge compared with the other tested antibiotics” value in data set [3] (72 hour time point, sponges hydrated with 5 mg/ml, one antibiotic per sponge) is “significantly less than the other two tested antibiotics”. Besides, the “effect of a co-loaded antibiotic” value in data set [3] is given as “Amikacin did not affect the release of daptomycin”.

The compound `CN[C@H](CC(C)C)C(=O)N[C@H]1C(=O)N[C@@H](CC(N)=O)C(=O)N[C@H]2C(=O)N[C@H]3C(=O)N[C@H](C(=O)N[C@H](C(=O)O)c4cc(O)cc(O)c4-c4cc3ccc4O)[C@H](O)c3ccc(c(Cl)c3)Oc3cc2cc(c3O[C@@H]2O[C@H](CO)[C@@H](O)[C@H](O)[C@H]2O[C@H]2C[C@](C)(N)[C@H](O)[C@H](C)O2)Oc2ccc(cc2Cl)[C@H]1O` [vancomycin] returned a concentration at 6 h in data set [1] (setting [7]) of 1630 ± 646 ng/mL. In data set [1] (setting [7]), this compound returned a concentration at 12 h of 703 ± 348 ng/mL. In data set [1] (setting [7]), this compound yielded a concentration at 24 h of 845 ± 539 ng/mL. The compound further gave a concentration at 36 h in data set [1] (setting [7]) of 740 ± 477 ng/mL. Moreover, the concentration at 42 h in data set [1] (setting [7]) stood at 275 ± 70 ng/mL. Moreover, the “elution from sterilized chitosan films” value in data set [2] (1 hour) came out at 83.45 ± 17.25 µg/mL; in data set [2] (3 hours), 19.35 ± 7.98 µg/mL; in data set [2] (6 hours), 0.58 ± 0.88 µg/mL; in data set [2] (24 hours), 2.53 ± 0.66 µg/mL; in data set [2] (48 hours), 9.72 ± 1.92 µg/mL; in data set [2] (72 hours), 6.13 ± 0.39 µg/mL. Also, in data set [6], the “inhibition of S. aureus growth by film eluates” value is given as “active in inhibiting the growth of S. aureus”. In data set [3], the “effect of a co-loaded antibiotic” value is reported as “amikacin did not affect the release of vancomycin”. In data set [5] (mean of 4 goats, fragments retrieved after 42 hours in vivo, 20 ml sterile saline, 37° C., 12 hours), the “12 hr TDx reading, antibiotic elution from remaining sponge fragments, Mean” value came out at 3.78 µg/mL/g.
